Measurements published in patent publication US20050245559A1, “Treatment and prevention of prostate cancer” (priority 2004, published 2005).

What was measured:
[1] = system: LNCaP prostate cancer cells; assay: flow cytometry of apoptosis and necrosis in LNCaP cells; type: cell-based; conditions: 24 hours or 48 hours exposure
Text: (§1) The increasing apoptosis and necrosis in hormone-independent and hormone dependent prostate cancer cells after exposure to tetrandrine occurs in a dose- and time-dependent manner.

Caspase-8 = Caspase-8 activation; type: cell-based; conditions: FIG. 6
Bcl-XL = Bcl-XL down-regulation in prostate cancer cells; type: cell-based; conditions: FIG. 9
prostate cancer cells [2] = assay: morphology of cellular organelles of prostate cancer cells; type: cell-based; conditions: about 10 μM and 20 μM tetrandrine
Caspase-3 = Caspase-3 activation; type: cell-based; conditions: FIG. 6
calcium channel = conditions: cited from earlier work
LNCaP cells [3] = assay: dose response of LNCaP growth and proliferation, optical density of stained live cells; type: cell-based
PARP = PARP cleavage; type: cell-based; conditions: FIG. 7
Caspase-9 = Caspase-9 activation; type: cell-based; conditions: FIG. 6
cytochrome-C = assay: mitochondrial cytochrome C release; type: cell-based; conditions: FIG. 8
LNCaP cells [4] = assay: growth and proliferation of LNCaP cells stimulated by fetal calf serum (FCS); type: cell-based
Caspase-7 = Caspase-7 activation; type: cell-based; conditions: FIG. 6
[5] = system: PC3 prostate cancer cells; assay: killing of hormone-independent PC3 prostate cancer cells; type: cell-based; conditions: increasing concentrations, 96 hours of exposure; FIG. 4
prostate cancer cells [6] = assay: cell cycle effect in prostate cancer cells; type: cell-based; conditions: stated as apparent mechanism
Text: as §1

[7] = system: PC3 prostate cancer cells; assay: clonogenic activity of PC3 prostate cancer cells; type: cell-based; conditions: dose dependent, FIG. 5
[8] = system: prostate specific antigen (PSA); assay: DHT-stimulated prostate specific antigen (PSA) expression in LNCaP cells; type: cell-based
LNCaP cells [9] = assay: growth and proliferation of LNCaP cells stimulated by dihydrotestosterone (DHT); type: cell-based
Procedure: Tetrandrine inhibits the growth and proliferation of prostate cancer cells in a dose- and time-dependent manner. For example, the growth and proliferation of LNCaP cells stimulated by dihydrotestosterone (DHT) and fetal calf serum (FCS) can be stopped or inhibited and, at higher concentrations or at longer exposure times, the cells are killed. Preferably, the concentration of tetrandrine used is between about 10 μM and about 60 μM. […] The cells take on an atrophied appearance after contact with tetrandrine.

[10] = doses of from 100 mg/day to 300 mg/day, prior studies; cited from earlier work

## COc1ccc2cc1Oc1ccc(cc1)CC1c3cc(c(OC)cc3CCN1C)Oc1c(OC)c(OC)cc3c1C(C2)N(C)CC3 (centres unmarked) [tetrandrine, (1B)-6,6′,7,12-tetramethoxy-2,2′-dimethyl-berbaman]
[1]
  apoptosis and necrosis by flow cytometry: increasing apoptosis and necrosis in a dose- and time-dependent manner
Caspase-8
  Caspase-8 activation: concentration-dependent increase
Bcl-XL
  Bcl-XL level in prostate cancer cells: concentration-dependent down-regulation
Prostate cancer cells [2]
  morphology of nuclei and cytoskeleton: nuclei of prostate cancer cells appear to shrink and round while the cytoskeleton is disrupted
Caspase-3
  Caspase-3 activation: concentration-dependent increase
Calcium channel
  calcium channel blocker activity: minimal
LNCaP cells [3]; 48 hours and 72 hours versus 24 hours, each concentration
  death of LNCaP cells at longer exposure: death of LNCaP cells is greater
LNCaP cells [3]; about 5 μM tetrandrine, 24 hours
  growth of LNCaP cells, stained live cells: growth of LNCaP cells is inhibited
LNCaP cells [3]; about 60 μM tetrandrine, 24 hours
  killing of LNCaP cells, stained live cells: almost all LNCAP cells are killed
PARP
  PARP cleavage: concentration-dependent increase
Caspase-9
  Caspase-9 activation: concentration-dependent increase
cytochrome-C
  cytoplasmic cytochrome-C: concentration-dependent increase
  mitochondrial cytochrome-C: concentration-dependent decrease
LNCaP cells [4]; 10 μM tetrandrine, FIG. 2A
  cell number and morphology of LNCaP cells growing under FCS: decrease in cell number and the notable change in cell morphology
LNCaP cells [4]; 20 μM tetrandrine, FIG. 2A
  cell number and morphology of LNCaP cells growing under FCS: the decrease in cell number and the change in cell morphology is even more apparent
LNCaP cells [4]; about 10 μM to about 60 μM tetrandrine, FIG. 1B
  growth and proliferation of LNCaP cells stimulated by FCS: inhibition of the growth and proliferation
LNCaP cells [4]; concentration not given
  cell number and morphology of LNCaP cells growing under FCS: sharp decrease in cell number and a significant change in cell morphology
Caspase-7
  Caspase-7 activation: concentration-dependent increase
[5]
  killing of hormone-independent PC3 cells: dose-dependent killing
Prostate cancer cells [6]
  mechanism of decreased proliferation / increased apoptosis (cell cycle): cell cycle arrest in G1
[7]
  clonogenic activity of PC3 cells: inhibition of the clonogenic activity
[7]; listed as Tetrandrine
  clonogenic activity of PC3 cells: inhibits the clonogenic activity
[8]
  DHT-stimulated PSA expression: inhibits DHT-stimulated prostate specific antigen (PSA) expression in a dose-dependent manner
LNCaP cells [9]; about 10 μM to about 20 μM tetrandrine, FIG. 2B
  cell number and morphology of LNCaP cells in presence of FCS and DHT: decrease in cell number and atrophied appearance
LNCaP cells [9]; about 10 μM to about 60 μM tetrandrine, FIG. 1A
  growth and proliferation of LNCaP cells stimulated by DHT: inhibition of the growth and proliferation
[10]
  toxicity: minimal toxicity
